Measured values taken from patent US10011609B2, “Heterocyclic compounds” (CADILA HEALTHCARE LIMITED, priority 2013, dated 2018).
Read-outs that look alike come from different tables or passages of the source. Values belong to the compound of their own block, whether it stands above or below them.

Columns and labels:
[1] = target: T1, GPR40 (Homo sapiens, UniProt O14842); assay: Intracellular Ca2+ flux fluorescent assay (FLIPR); assay type: cell-based
T1 construct: host or cells: HEK293 (ChemiBrite cell line)
Procedure: To determine the EC50 of the compounds on intracellular Ca^2+ flux using a fluorescent assay (FLIPR)
GPR40 expressing stable cells were seeded at 25,000 numbers/well. 50 μL/well of assay buffer (20 mM HEPES+1×HBSS) was added to the cells and the cells were cultured for 20 min at 37° C. Cells were loaded with 50 μL/well of Calcium 5 dye and cultured for 45 min at 37° C.
The cells were challenged with compounds at a top concentration of 1000 nM (1:3 step down dilution—10 points). Intracellular Calcium flux was assessed by use of Screen Works 3.1 tool and statistical analysis was carried using Graph Pad Prism 4

[2] = target: T1, GPR40; assay: Promoter-luciferase assay to measure GPR40 activation (HEK293 cells stably transfected with GPR40 cDNA); assay type: cell-based; conditions: HEK293 cells stably transfected with GPR40, 5xSRE-luciferase
Procedure: GPR40 activation was measured in HEK293 cells stably transfected with GPR40 cDNA (ChemiBrite cell lines from Millipore, US). These cells were transiently transfected with a pGL2 (Promega Inc.) plasmid having a 5×SRE sequence, cloned 5′ of a luciferase gene along with a β-galactosidase plasmid as normalizing control. Briefly, 35000 cells/well were seeded in a 96 well plates. After overnight incubation at 37° C., the cells were washed with PBS and transfected with the 5×-SRE-Luciferase plasmid and the β-galactosidase plasmid. 6 h post transfection, media was removed and replaced with fresh media with different concentration of drugs and incubated for 16 more hours. The cells were then lysed in 50 μL of Glo-Lysis buffer (Promega) for 30 min at room temperature. The cells were then centrifuged and lysates were collected. Luciferase activity was measured by adding 100 μL of luciferase substrate (Promega) in 20 μL of lysate and measuring the luminescence in luminometer. The […] activity was also measured by adding 20 μL of lysates with 20 μL of β-galactosidase buffer (Promega) and monitoring the absorbance at 415 nm. Luciferase values were divided by β-galactosidase values to normalize transfection efficiency (Table 2)

[3] = tested on: n-STZ rat model; assay: Oral glucose tolerance test in n-STZ rat model; assay type: in vivo, Wistar rat; conditions: for % improvement in AUC glucose vs. control: n-STZ rat; for ED50: po, n-STZ rat OGTT model
Procedure: Primary Screening Protocol for GRP40 agonist test compounds in n-STZ rat model
Wistar rat pups of 1-2 day old injected with Streptozotocin (STZ) at 120 mg/kg dose by intraperitoneal route. All pups allowed grow normally and at the age of 12-14 week they were screen for glucose intolerance by performing the oral glucose tolerance test by tail clip method using glucometer. Animals showing glucose intolerance were selected for evaluation of test compound. Three to seven days of rest period animals were kept on overnight fasting. […] Animals were administered with test compound and then 15-60 min after the compound administration “O” min blood glucose levels were measured and immediately glucose load at 2 g/kg was administered orally. Blood glucose levels were measured at 30, 60 and 120 min after glucose load using by tail clip method using glucometer. Blood was also collected at 10 min after glucose load for measurement of insulin levels. Glucose area under the curve (AUC) was calculated using Graph Pad Prism software and % reduction in AUC-glucose vs vehicle treated control was calculated (Table 3).

[4] = Pharmacokinetics in rats; conditions: rat, in vivo; for MRT: read-out: Mean residence time; for Vd: read-out: Vss; for bioavailability: po 3 mg/Kg vs iv 1 mg/Kg
[5] = GPR40 expressing stable cells, intracellular Ca2+ flux, read-out: EC50 in FLIPR assay
[6] = read-out: EC50 in Luciferase assay
[7] = iv 1 mg/Kg, read-out: T1/2, iv (converted)
[8] = po 3 mg/Kg, read-out: T1/2, po (converted)

T1 sequence (O14842 whole entry, species assumed): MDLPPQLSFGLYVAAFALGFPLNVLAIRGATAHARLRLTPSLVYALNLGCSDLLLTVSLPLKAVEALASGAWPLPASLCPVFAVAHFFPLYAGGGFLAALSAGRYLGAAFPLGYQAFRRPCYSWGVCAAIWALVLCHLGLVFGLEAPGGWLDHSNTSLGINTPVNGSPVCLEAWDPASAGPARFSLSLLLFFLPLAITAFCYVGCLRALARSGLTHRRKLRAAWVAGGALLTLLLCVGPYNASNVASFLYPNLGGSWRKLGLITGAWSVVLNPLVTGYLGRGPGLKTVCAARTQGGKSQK

EC50 [1, 5]: 117 nM | EC50 [2, 6]: 7.5 nM
SMILES: CC#C[C@@H](CC(=O)O)c1ccc(OCc2cccc(CN3CCc4sccc4C3)c2)cc1 [Compound 1, (S)-3-(4-((3-((6,7-dihydrothieno[3,2-c]pyridin-5(4H)yl)methyl)benzyl)oxy)phenyl)hex-4-ynoic acid]

EC50 [1, 5]: 1.8 nM | EC50 [2, 6]: 1.49 nM
SMILES: CC#C[C@@H](CC(=O)O)c1ccc(OCc2cccc(CN3CCc4sc(C)cc4C3)c2)cc1 [Compound 7, (S)-3-(4-((3-((2-methyl-6,7-dihydrothieno[3,2-c]pyridin-5(4H)-yl)methyl)benzyl)oxy)phenyl)hex-4-ynoic acid]
% improvement in AUC glucose vs. control ([3]; 0.1 mg/Kg per oral): 30.4% | % improvement in AUC glucose vs. control ([3]; 1 mg/Kg per oral): 46.0% | % improvement in AUC glucose vs. control ([3]; 10 mg/Kg per oral): 57.0%

EC50 [2, 6]: 16.9 nM
SMILES: CC#C[C@@H](CC(=O)O)c1ccc(OCc2cccc(CN3CCc4nc(C)sc4C3)c2)cc1 [Compound 10, (S)-3-(4-((3-((2-methyl-6,7-dihydrothiazolo[5,4-c]pyridin-5(4H)-yl)methyl)benzyl)oxy)phenyl)hex-4-ynoic acid]
% improvement in AUC glucose vs. control ([3]; 0.1 mg/Kg per oral): 21.1% | % improvement in AUC glucose vs. control ([3]; 1 mg/Kg per oral): 35.7% | % improvement in AUC glucose vs. control ([3]; 10 mg/Kg per oral): 45.0%

SMILES: CC#C[C@@H](CC(=O)[O][Ca][O]C(=O)C[C@H](C#CC)c1ccc(OCc2cccc(CN3CCc4sc(C)cc4C3)c2)cc1)c1ccc(OCc2cccc(CN3CCc4sc(C)cc4C3)c2)cc1 [Compound 16, calcium(S)-3-(4-((3-((2-methyl-6,7-dihydrothieno[3,2-c]pyridin-5(4H)-yl)methyl)benzyl)oxy)phenyl)hex-4-ynoate(S)-3-(4-((3-((2-methyl-6,7-dihydrothieno[3,2-c]pyridin-5(4H)-yl)methyl)benzyl)oxy)phenyl)hex-4-ynoate]
EC50 [1]: 2.72 nM | EC50 ([2]; EC50 in Luciferase assay): 4.6 nM | % improvement in AUC glucose vs. control ([3]; 1 mg/Kg per oral): 44.6% | % improvement in AUC glucose vs. control ([3]; 10 mg/Kg per oral): 59.6% | ED50 [3]: 0.05 mg/kg | AUC(0-t) ([4]; iv 1 mg/Kg): 3180 ± 400 ng·h/mL | C0 ([4]; iv 1 mg/Kg): 5020 ± 370 ng/mL | clearance ([4]; iv 1 mg/Kg): 5.26 ± 0.65 mL/min/kg | MRT ([4]; iv 1 mg/Kg): 1.09 ± 0.07 h | half-life [4, 7]: 87 ± 7.2 min | Vd ([4]; iv 1 mg/Kg): 0.34 ± 0.03 L/kg | Cmax ([4]; po 3 mg/Kg): 5920 ± 2100 ng/mL | Tmax ([4]; po 3 mg/Kg): 0.25 h | bioavailability [4]: 83% | MRT ([4]; po 3 mg/Kg): 2.19 ± 0.31 h | half-life [4, 8]: 106 ± 25.2 min

SMILES: CC#C[C@@H](CC(=O)[O][Ca][O]C(=O)C[C@H](C#CC)c1ccc(OCc2cccc(CN3CCc4nc(C)sc4C3)c2)cc1)c1ccc(OCc2cccc(CN3CCc4nc(C)sc4C3)c2)cc1 [Compound 17, calcium (S)-3-(4-((3-((2-methyl-6,7-dihydrothiazolo[4,5-c]pyridin-5(4H)-yl)methyl)benzyl)oxy)phenyl)hex-4-ynoate(S)-3-(4-((3-((2-methyl-6,7-dihydrothiazolo[4,5-c]pyridin-5(4H)-yl)methyl)benzyl)oxy)phenyl)hex-4-ynoate]
EC50 [1]: 10.2 nM | EC50 ([2]; EC50 in Luciferase assay): 4.7 nM | % improvement in AUC glucose vs. control ([3]; 1 mg/Kg per oral): 37.1% | % improvement in AUC glucose vs. control ([3]; 10 mg/Kg per oral): 44.7%

EC50 [1, 5]: 2.32 nM
SMILES: CC#C[C@@H](CC(=O)O)c1ccc(OCc2cccc(CN3CCc4sc(Br)cc4C3)c2)cc1 [Compound 19, Calcium (S)-3-(4-((3-((2-bromo-6,7-dihydrothieno[3,2-c]pyridin-5(4H)-yl)methyl)benzyl)oxy)phenyl)hex-4-ynoate]

EC50 [1, 5]: 36.3 nM | EC50 [2, 6]: 31.5 nM
SMILES: CC#C[C@@H](CC(=O)O)c1ccc(OCc2cccc(CN3Cc4cnn(C)c4C3)c2)cc1 [Compound 22, (S)-3-(4-((3-((1-Methylpyrrolo[3,4-c]pyrazol-5(1H,4H,6H)-yl)methyl)benzyl)oxy)phenyl)hex-4-ynoic acid]

SMILES: CC#C[C@@H](CC(=O)[O][Ca][O]C(=O)C[C@H](C#CC)c1ccc(OCc2cccc(CN3CCc4nc(Cl)sc4C3)c2)cc1)c1ccc(OCc2cccc(CN3CCc4nc(Cl)sc4C3)c2)cc1 [Compound 60, Calcium (S)-3-(4-((3-((2-chloro-6,7-dihydrothiazolo[5,4-c]pyridin-5(4H)-yl)methyl)benzyl)oxy)phenyl)hex-4-ynoate]
EC50 ([2]; EC50 in Luciferase assay): 5.6 nM | % improvement in AUC glucose vs. control ([3]; 1 mg/Kg per oral): 44% | % improvement in AUC glucose vs. control ([3]; 10 mg/Kg per oral): 47% | ED50 [3]: 0.04 mg/kg | AUC(0-t) ([4]; iv 1 mg/Kg): 18600 ± 2170 ng·h/mL | C0 ([4]; iv 1 mg/Kg): 3390 ± 330 ng/mL | clearance ([4]; iv 1 mg/Kg): 0.89 ± 0.1 mL/min/kg | MRT ([4]; iv 1 mg/Kg): 6.28 ± 0.77 h | half-life [4, 7]: 334 ± 87.6 min | Vd ([4]; iv 1 mg/Kg): 0.33 ± 0.01 L/kg | Cmax ([4]; po 3 mg/Kg): 7770 ± 1940 ng/mL | Tmax ([4]; po 3 mg/Kg): 1 h | bioavailability [4]: 93% | MRT ([4]; po 3 mg/Kg): 5.74 ± 0.1 h | half-life [4, 8]: 327 ± 47.4 min

SMILES: CC#C[C@@H](CC(=O)[O][Ca][O]C(=O)C[C@H](C#CC)c1ccc(OCc2cccc(CN3CCc4oc(C5CC5)nc4C3)c2)cc1)c1ccc(OCc2cccc(CN3CCc4oc(C5CC5)nc4C3)c2)cc1 [Compound 64, Calcium (S)-3-(4-((3-((2-cyclopropyl-6,7-dihydrooxazolo[4,5-c]pyridin-5(4H)-yl)methyl)benzyl)oxy)phenyl)hex-4-ynoate]
EC50 ([2]; EC50 in Luciferase assay): 1.2 nM | % improvement in AUC glucose vs. control ([3]; 1 mg/Kg per oral): 46% | % improvement in AUC glucose vs. control ([3]; 10 mg/Kg per oral): 47% | ED50 [3]: 0.09 mg/kg | AUC(0-t) ([4]; iv 1 mg/Kg): 56100 ± 4350 ng·h/mL | C0 ([4]; iv 1 mg/Kg): 10200 ± 1540 ng/mL | clearance ([4]; iv 1 mg/Kg): 0.27 ± 0.03 mL/min/kg | MRT ([4]; iv 1 mg/Kg): 10.1 ± 1.36 h | half-life [4, 7]: 466 ± 64.2 min | Vd ([4]; iv 1 mg/Kg): 0.16 ± 0.01 L/kg | Cmax ([4]; po 3 mg/Kg): 8060 ± 2190 ng/mL | Tmax ([4]; po 3 mg/Kg): 2 h | bioavailability [4]: 45% | MRT ([4]; po 3 mg/Kg): 6.59 ± 0.93 h | half-life [4, 8]: 271 ± 36.6 min

EC50 [2, 6]: 0.8 nM
SMILES: CC#C[C@@H](CC(=O)O)c1ccc(OCc2cccc(CN3CCc4sc(C5CC5)cc4C3)c2)cc1 [Compound 69, (S)-3-(4-((3-((2-Cyclopropyl-6,7-dihydrothieno[3,2-c]pyridin-5(4H)-yl)methyl)benzyl)oxy)phenyl)hex-4-ynoic acid compound with 2,2,2-trifluoroacetic acid]

EC50 [2, 6]: 0.4 nM
SMILES: CC#C[C@@H](CC(=O)O)c1ccc(OCc2cccc(CN3CCc4sc(CC)cc4C3)c2)cc1 [Compound 71, (S)-3-(4-((3-((2-Ethyl-6,7-dihydrothieno[3,2-c]pyridin-5(4H)-yl)methyl)benzyl)oxy)phenyl)hex-4-ynoic acid]

EC50 [2, 6]: 2.3 nM
SMILES: CC#C[C@@H](CC(=O)O)c1ccc(OCc2cccc(CN3CCc4sc(C(C)=O)cc4C3)c2)cc1 [Compound 72, (S)-3-(4-((3-((2-Acetyl-6,7-dihydrothieno[3,2-c]pyridin-5(4H)-yl)methyl)benzyl)oxy)phenyl)hex-4-ynoic acid]
